The values below come from patent US20250099448A1, “HETEROCYCLIC COMPOUNDS” (Hoffmann-La Roche Inc., priority 2022, published 2025).

pIC50: −log10 of the molar value.

For this assay, the target named is T1, MAGL protein (Homo sapiens, UniProt Q99685).
T1 sequence (Q99685 1-303): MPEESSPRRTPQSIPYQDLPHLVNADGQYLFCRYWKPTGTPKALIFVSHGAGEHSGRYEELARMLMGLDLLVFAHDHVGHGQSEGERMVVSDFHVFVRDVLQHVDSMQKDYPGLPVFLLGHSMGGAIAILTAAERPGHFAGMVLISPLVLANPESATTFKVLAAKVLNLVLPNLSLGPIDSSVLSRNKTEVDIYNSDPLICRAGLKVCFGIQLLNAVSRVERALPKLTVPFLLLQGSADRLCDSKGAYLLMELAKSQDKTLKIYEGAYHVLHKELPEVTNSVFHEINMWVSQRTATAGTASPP
Nature of the assay: 2-AG assay: MAGL inhibitory activity by hydrolysis of 2-arachidonoylglycerol to arachidonic acid, followed by mass spectrometry. It counts as biochemical. To be noted: 8 μM 2-arachidonoylglycerol, 15 min preincubation, 30 min reaction at RT, RapidFire MS readout. Summed up:
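Activity was measured by RapidFire SPE–triple-quad MS as the ratio of arachidonic acid to d8-arachidonic acid after 2-AG hydrolysis (8 μM substrate, 30 min, RT, acetonitrile quench). Compounds, tested from 12.5 μM down to […], were first preincubated 15 min with MAGL in TRIS/EDTA/Tween-20 buffer containing 2.5% DMSO.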

In the case of `CS(=O)(=O)c1ccc(OCC2CCN(C(=O)N3CC4(CC(c5nc(C6(O)CC6)n[nH]5)C4)C3)CC2)cc1C(F)(F)F` [Example 922], the pIC50 was 6.49. For `O=C(N1CC(OCc2ccc(F)cc2Cl)C1)N1CC2(CC(c3nnc(C4CC4)[nH]3)C2)C1` [compound 320] the value was 8.08; for `CP(C)(=O)Cc1ccc(C2CN(C(=O)N3CC4(CC(c5nnc(C6CC6)[nH]5)C4)C3)C2)cc1` [compound 381], 9.16; for `CS(=O)(=O)c1ccccc1-c1ccc(C2CN(C(=O)N3CC4(CC(c5nc(C6CC6)n[nH]5)C4)C3)C2)cc1` [Example 516, [6-(3-cyclopropyl-1H-1,2,4-triazol-5-yl)-2-azaspiro[3.3]heptan-2-yl]-[3-[4-(2-mesylphenyl)phenyl]azetidin-1-yl]methanone], 9.77.

In the case of `Cc1c(C(F)(F)F)n[nH]c1CN1CC2(C1)CN(C(=O)N1CC3(CC(c4nnc(C5CC5)[nH]4)C3)C1)C2` [compound 874], the pIC50 was 8.55. This pIC50 lies 1.22 log units lower than the previous one.

Consider `O=C(N1CC2(CC(Cc3ccc(C(F)(F)F)cn3)C2)C1)N1CC2(CC(c3nc(C4COC4)n[nH]3)C2)C1` [compound 824], for which the pIC50 was 7.99. As for `O=C(N1CC2(CC(Cc3ccc(F)cc3C(F)(F)F)C2)C1)N1CC2(CC(c3nnc(C4CC4)[nH]3)C2)C1` [compound 33], the figure is 11.00; as for `O=C(N1CC2(CC(Cc3ccc(S(=O)(=O)C(F)(F)F)cc3)C2)C1)N1CC2(CC(c3nc(C4COC4)n[nH]3)C2)C1` [compound 755], 9.21; as for `O=C(N1CC2(CC(c3nc(C4CC4)n[nH]3)C2)C1)N1CC2(CN(Cc3nc(CC4CC4)no3)C2)C1` [compound 733], 7.53. In the case of `O=C(N1CC2(CC(c3nnc(C4CC4)[nH]3)C2)C1)N1CC2(CN(Cc3ccc(S(=O)(=O)C(F)(F)F)cc3)C2)C1` [compound 86], the negative-log IC50 (pIC50) is 9.04. Consider `O=C(N1CC2(CC(Cc3ccc(S(=O)(=O)C4CC4)cc3)C2)C1)N1CC2(CC(c3nc(C4(O)CC4)n[nH]3)C2)C1` [compound 505], for which the negative logarithm of the IC50 (pIC50) is 8.89. `O=C(N1CC(c2ccc(NCC3(C(F)(F)F)CC3)cn2)C1)N1CC2(CC(c3nnc(C4CC4)[nH]3)C2)C1` [compound 256] showed a pIC50 of 9.11. This pIC50 lies 0.22 log units higher than the previous one.

`O=C(N1CC2(CC(c3nnc(C4CC4)[nH]3)C2)C1)N1CC2(CN(Cc3ccc(C(F)(F)F)nn3)C2)C1` [compound 160]: the pIC50 is 7.21. As for `O=C(N1CC2(CC(Cn3cc(C(F)(F)F)ccc3=O)C2)C1)N1CC2(CC(c3nc(C4(O)CC4)n[nH]3)C2)C1` [compound 417], the figure is 8.21; as for `Cc1cc(C)n(C23CC(C4CN(C(=O)N5CC6(CC(c7nc(C8(O)CC8)n[nH]7)C6)C5)C4)(C2)C3)n1` [compound 712], 6.30; as for `N#Cc1cc(CC2CC3(C2)CN(C(=O)N2CC4(CC(c5nnc(C6CC6)[nH]5)C4)C2)C3)cnc1C(F)(F)F` [compound 833], 9.41.

With `O=C(N1CC(C23CC(Nc4cnc(C(F)(F)F)cn4)(C2)C3)C1)N1CC2(CC(c3nc(C4CC4)n[nH]3)C2)C1` [compound 699], the pIC50 is 9.47. In turn, `O=C(N1CC(C23CC(Cn4ccc(C(F)(F)F)cc4=O)(C2)C3)C1)N1CC2(CC(c3nc(C4CC4)n[nH]3)C2)C1` [compound 947] had a pIC50 of 8.04. Compared with the last compound, the pIC50 is 1.43 log units lower. For `CS(=O)(=O)c1cc(C(F)(F)F)ccc1OCC1CCN(C(=O)N2CC3(CC(c4nc(C5(O)CC5)n[nH]4)C3)C2)CC1` [Example 919, [6-[3-(1-hydroxycyclopropyl)-1H-1,2,4-triazol-5-yl]-2-azaspiro[3.3]heptan-2-yl]-[4-[[2-mesyl-4-(trifluoromethyl)phenoxy]methyl]piperidino]methanone] the value was 5.92; for `COc1cc(Cl)ccc1CN(C)CC1CN(C(=O)N2CC3(CC(c4nnc(C5CC5)[nH]4)C3)C2)C1` [compound 894], 7.11; for `O=C(N1CC2(CC(Cc3ccc(F)cc3F)C2)C1)N1CC2(CC(c3nc(C4CC(F)(F)C4)n[nH]3)C2)C1` [compound 586], 8.26.

In turn, `O=C(N1CC2(CC(Cc3cc(F)cc(C(F)(F)F)c3)C2)C1)N1CC2(CC(c3nc(C4CC(F)(F)C4)n[nH]3)C2)C1` [compound 455] had a pIC50 of 8.15. As for `O=C(N1CC2(CC(Cn3cnc(C4(C(F)(F)F)CC4)n3)C2)C1)N1CC2(CC(c3nc(C4CC4)n[nH]3)C2)C1` [compound 787], the figure is 8.92. As for `O=C(N1CC2(CC(Cc3cc(C(F)(F)F)n(CC(F)(F)F)n3)C2)C1)N1CC2(CC(c3nc(C4CC4)n[nH]3)C2)C1` [compound 793], the figure is 10.15; as for `O=C(N1CC2(CC(Cc3nnc(C4(C(F)(F)F)CC4)o3)C2)C1)N1CC2(CC(c3nnc(C4CC4)[nH]3)C2)C1` [compound 862], 8.80; as for `O=C(N1CC2(CC(c3nc(C4CC4)n[nH]3)C2)C1)N1CC2(CC[C@@H](Cc3ccc(S(=O)(=O)C(F)(F)F)cc3)C2)C1` [compound 612], 9.89.

As for `O=C(N1CC2(CC(Cn3nccc3C(F)(F)F)C2)C1)N1CC2(CC(c3nc(C4CC4)n[nH]3)C2)C1` [compound 410], the pIC50 is 9.85. This pIC50 and that of the compound before are within 0.2 log units of each other. In turn, `Cc1cc(C(F)(F)F)n(CC2CC3(C2)CN(C(=O)N2CC4(CC(c5nc(C6CC6)n[nH]5)C4)C2)C3)n1` [compound 428] had a pIC50 of 9.51. `O=C(N1CC2(CCC(Cc3ncc(F)cc3F)C2)C1)N1CC2(CC(c3nc(C4(O)CC4)n[nH]3)C2)C1` (centres unmarked) [compound 929] showed a negative-log IC50 (pIC50) of 8.41. For `O=C(N1CC2(CC(Cc3ccc(OC(F)(F)F)cn3)C2)C1)N1CC2(CC(c3ncn[nH]3)C2)C1` [compound 721], the pIC50 was 6.26. For `O=C(N1CC(c2ccc(C3(C(F)(F)F)CC3)nn2)C1)N1CC2(CC(c3nnc(C4CC4)[nH]3)C2)C1` [compound 234] the value was 6.86; for `N#Cc1cc(C(F)(F)F)ncc1CC1CC2(C1)CN(C(=O)N1CC3(CC(c4nnc(C5CC5)[nH]4)C3)C1)C2` [compound 843], 8.97.

As for `O=C(N1CC2(CC(Cn3cc(C(F)(F)F)ccc3=O)C2)C1)N1CC2(CC(c3nc(C4CC4)n[nH]3)C2)C1` [compound 406], the pIC50 is 8.76. Compared with the last compound, the pIC50 is 0.21 log units lower. Turning to `O=C(N1CC(NCc2cc(C(F)(F)F)ccc2F)C1)N1CC2(CC(c3nnc(C4CC4)[nH]3)C2)C1` [compound 195], the pIC50 was 6.89. As for `O=C(N1CC(Cc2ccc(Cl)cc2)C1)N1CC2(CC(c3nnc(C4(O)CC4)[nH]3)C2)C1` [compound 361], the figure is 7.34; as for `O=C(N1CC2(CC(CNC3CS(=O)(=O)C3)C2)C1)N1CC2(CC(c3nnc(C4CC4)[nH]3)C2)C1` [compound 364], 6.42; as for `CC(C)(C)c1ccc(C2CN(C(=O)N3CC4(CC(c5nc(C6CC6)n[nH]5)C4)C3)C2)cn1` [compound 399], 8.58. As for `O=C(N1CC(c2cnc(NCC3(C(F)(F)F)CC3)cn2)C1)N1CC2(CC(c3nc(C4(F)CC4)n[nH]3)C2)C1` [compound 503], the figure is 9.16. As for `O=C(N1CC2(CC(c3nc(C4(O)CC4)n[nH]3)C2)C1)N1CC2(CC(S(=O)(=O)c3cccc(OC(F)(F)F)c3)C2)C1` [compound 484], the figure is 7.05. In the case of `O=C(N1CC2(CC(Cn3cc(C(F)(F)F)ccc3=O)C2)C1)N1CC2(CC(c3nc(C4(O)CC4)n[nH]3)C2)C1` [compound 621], the pIC50 was 8.44. Consider `Cc1nc(C)c(CN2CC3(C2)CN(C(=O)N2CC4(CC(c5nnc(C6CC6)[nH]5)C4)C2)C3)s1` [compound 877], for which the pIC50 is 7.82.

Regarding `O=C(N1CC2(CC(Cc3cc(C(F)F)[nH]n3)C2)C1)N1CC2(CC(c3nc(C4(O)CC4)n[nH]3)C2)C1` [compound 615], the pIC50 is 8.78. `O=C(N1CC2(CC(Cn3ccc(C(F)(F)F)cc3=O)C2)C1)N1CC2(CC(c3nc(C4CC4)n[nH]3)C2)C1` [compound 766] had a pIC50 of 8.55.

Consider `O=C(N1CC2(CC(c3nc(C4CC4)n[nH]3)C2)C1)N1CC2(CC(C(F)c3ccc(C(F)(F)F)nc3)C2)C1` (centres unmarked) [compound 845], for which the pIC50 is 8.01.

`O=C(N1CC2(CC(c3nc(C4CC4)n[nH]3)C2)C1)N1CC2(CN(Cc3cc[nH]n3)C2)C1` [compound 799] gave a pIC50 of 5.88. As for `O=C(N1CC(c2ccc(OC(F)(F)F)c(F)c2)C1)N1CC2(CC(c3nnc(C4CC4)[nH]3)C2)C1` [compound 241], the figure is 9.62; as for `N#Cc1cc(CC2CC3(C2)CN(C(=O)N2CC4(CC(c5nc(C6CC6)n[nH]5)C4)C2)C3)cc(C(F)(F)F)c1` [compound 867], 10.00. On to `N#Cc1cc(C(F)(F)F)ncc1O[C@H]1CCC2(C1)CN(C(=O)N1CC3(CC(c4nc(C5(O)CC5)n[nH]4)C3)C1)C2` [Example 696], for which the pIC50 is 7.37. In turn, `O=C(N1CC2(CCC(Cc3nnc(C(F)(F)F)o3)CC2)C1)N1CC2(CC(c3nc(C4CC4)n[nH]3)C2)C1` [compound 779] had a negative logarithm of the IC50 (pIC50) of 8.08. As for `N=S(=O)(c1cccc(CC2CC3(C2)CN(C(=O)N2CC4(CC(c5ncn[nH]5)C4)C2)C3)c1)C(F)(F)F` (centres unmarked) [compound 734], the figure is 6.25. For `O=C(N1CC2(CC(c3nc(C4CC4)n[nH]3)C2)C1)N1CC2(CN(Cc3ccn(C(F)(F)F)n3)C2)C1` [compound 601] the value was 7.58. As for `O=C(N1CC2(CC(Cc3ccc(OC(F)(F)F)cn3)C2)C1)N1CC2(CC(c3nnc(C4CC4)[nH]3)C2)C1` [compound 8], the figure is 9.89; as for `O=C(N1CC(OCc2ccc(S(=O)(=O)C(F)(F)F)cc2)C1)N1CC2(CC(c3nnc(C4CC4)[nH]3)C2)C1` [compound 316], 8.21.
